Here are results for two compounds from ChEMBL document CHEMBL4507268 (2021).

Structures are written as SMILES.

For assay [1], the target named is Cyclin-dependent kinase 19 (Homo sapiens) (UniProt Q9BWU1). Conditions: Compound concentration 1000.0 nM.
For assay [2], the target named is 5-hydroxytryptamine receptor 7 (Homo sapiens) (UniProt P34969). The following applies: Compound concentration 10.0 uM.
Assay [3] addresses T1, Mitogen-activated protein kinase kinase kinase 7 (Homo sapiens) (UniProt O43318).
T1 sequence (whole entry): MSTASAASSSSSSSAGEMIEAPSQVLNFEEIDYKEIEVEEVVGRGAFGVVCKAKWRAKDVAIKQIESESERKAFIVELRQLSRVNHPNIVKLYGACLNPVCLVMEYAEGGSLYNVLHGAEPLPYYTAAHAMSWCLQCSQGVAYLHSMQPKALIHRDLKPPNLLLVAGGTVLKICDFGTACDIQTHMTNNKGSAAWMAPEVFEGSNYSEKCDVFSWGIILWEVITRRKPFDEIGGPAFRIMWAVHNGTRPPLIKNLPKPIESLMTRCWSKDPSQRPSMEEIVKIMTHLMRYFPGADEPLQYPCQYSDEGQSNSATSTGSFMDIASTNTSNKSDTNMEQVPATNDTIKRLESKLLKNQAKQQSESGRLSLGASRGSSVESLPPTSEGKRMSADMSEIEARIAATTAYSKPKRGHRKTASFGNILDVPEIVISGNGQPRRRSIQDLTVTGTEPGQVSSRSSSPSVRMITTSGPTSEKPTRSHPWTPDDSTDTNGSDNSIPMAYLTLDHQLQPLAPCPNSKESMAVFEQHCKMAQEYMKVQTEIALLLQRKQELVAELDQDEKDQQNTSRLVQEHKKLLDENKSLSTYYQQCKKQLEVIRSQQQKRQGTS
The following applies: Compound concentration 1000.0 nM.

For assay [4], the target named is Receptor-interacting serine/threonine-protein kinase 4 (Homo sapiens) (UniProt P57078). Conditions: Compound concentration 1000.0 nM.
In assay [5] the target is Serine/threonine-protein kinase 36 (Homo sapiens) (UniProt Q9NRP7). The following applies: Compound concentration 1000.0 nM.
Assay [6] has as its target T2, Mitogen-activated protein kinase kinase kinase 3 (Homo sapiens) (UniProt Q99759).
T2 sequence (whole entry): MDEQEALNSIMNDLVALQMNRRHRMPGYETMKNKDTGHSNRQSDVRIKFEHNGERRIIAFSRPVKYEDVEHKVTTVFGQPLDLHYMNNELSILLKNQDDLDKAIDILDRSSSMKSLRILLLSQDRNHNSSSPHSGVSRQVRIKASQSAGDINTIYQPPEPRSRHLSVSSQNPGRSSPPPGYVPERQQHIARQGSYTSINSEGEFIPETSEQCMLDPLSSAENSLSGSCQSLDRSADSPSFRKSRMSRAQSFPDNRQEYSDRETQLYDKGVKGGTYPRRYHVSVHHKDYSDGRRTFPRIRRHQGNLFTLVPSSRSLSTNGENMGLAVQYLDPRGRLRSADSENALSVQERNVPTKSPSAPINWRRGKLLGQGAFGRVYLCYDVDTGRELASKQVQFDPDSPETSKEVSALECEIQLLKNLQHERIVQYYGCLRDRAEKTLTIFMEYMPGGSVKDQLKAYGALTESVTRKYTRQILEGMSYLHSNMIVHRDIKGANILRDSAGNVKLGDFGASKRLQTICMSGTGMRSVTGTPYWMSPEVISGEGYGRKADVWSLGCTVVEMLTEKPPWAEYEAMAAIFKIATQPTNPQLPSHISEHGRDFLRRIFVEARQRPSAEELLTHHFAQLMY
Conditions: Compound concentration 1000.0 nM.

Assay [7] concerns the target Muscarinic acetylcholine receptor M2 (Homo sapiens) (UniProt P08172). The following applies: Compound concentration 10.0 uM.
The subject of assay [8] is Epidermal growth factor receptor (Homo sapiens), P00533 [UNDEFINED MUTATION]. Conditions: Compound concentration 1000.0 nM.
Assay [9] deals with T3, Serine/threonine-protein kinase DCLK3 (Homo sapiens) (UniProt Q9C098).
T3 sequence (whole entry): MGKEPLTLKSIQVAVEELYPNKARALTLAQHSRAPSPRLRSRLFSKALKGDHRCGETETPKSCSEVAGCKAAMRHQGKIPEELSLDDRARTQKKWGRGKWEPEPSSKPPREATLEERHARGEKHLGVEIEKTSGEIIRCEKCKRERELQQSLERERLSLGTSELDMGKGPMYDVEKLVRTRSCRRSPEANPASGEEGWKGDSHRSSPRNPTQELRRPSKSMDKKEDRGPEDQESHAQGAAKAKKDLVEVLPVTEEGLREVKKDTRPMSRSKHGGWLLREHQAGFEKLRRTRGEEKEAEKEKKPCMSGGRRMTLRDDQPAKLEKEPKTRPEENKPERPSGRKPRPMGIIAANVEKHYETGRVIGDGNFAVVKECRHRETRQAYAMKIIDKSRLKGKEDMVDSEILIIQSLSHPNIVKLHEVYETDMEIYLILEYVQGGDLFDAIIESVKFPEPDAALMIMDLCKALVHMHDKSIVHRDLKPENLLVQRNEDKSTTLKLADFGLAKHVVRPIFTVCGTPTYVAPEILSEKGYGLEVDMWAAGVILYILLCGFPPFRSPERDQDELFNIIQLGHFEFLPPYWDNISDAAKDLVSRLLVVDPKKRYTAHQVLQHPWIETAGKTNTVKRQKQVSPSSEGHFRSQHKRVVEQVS
The following applies: Compound concentration 1000.0 nM.

Assay [10] has as its target Proto-oncogene tyrosine-protein kinase Src (Homo sapiens) (UniProt P12931). Conditions: Compound concentration 1000.0 nM.
Assay [11] deals with Dual specificity tyrosine-phosphorylation-regulated kinase 1B (Homo sapiens) (UniProt Q9Y463). Conditions: Compound concentration 1000.0 nM.
Assay [12] deals with Dual specificity mitogen-activated protein kinase kinase 4 (Homo sapiens) (UniProt P45985). Conditions: Compound concentration 1000.0 nM.
The target in assay [13] is Mitogen-activated protein kinase 7 (Homo sapiens) (UniProt Q13164). The following applies: Compound concentration 1000.0 nM.
Assay [14] addresses Alpha-1B adrenergic receptor (Homo sapiens) (UniProt P35368). The following applies: Compound concentration 10.0 uM.
The target of assay [15] is SRSF protein kinase 3 (Homo sapiens) (UniProt Q9UPE1). Conditions: Compound concentration 1000.0 nM.
In assay [16] the target is Tyrosine-protein kinase ABL1 (Homo sapiens) (UniProt P00519). The following applies: Compound concentration 1000.0 nM.
The subject of assay [17] is Mast/stem cell growth factor receptor Kit (Homo sapiens), P10721 [V559D,T670I]. Conditions: Compound concentration 1000.0 nM.
The target in assay [18] is Serine/threonine-protein kinase PAK 6 (Homo sapiens) (UniProt Q9NQU5). Conditions: Compound concentration 1000.0 nM.
Assay [19] deals with Mitogen-activated protein kinase kinase kinase kinase 5 (Homo sapiens) (UniProt Q9Y4K4). The following applies: Compound concentration 1000.0 nM.

Broadly, the inhibition is the drop in the measured response relative to a control, in per cent.

Chain of Receptor-interacting serine/threonine-protein kinase 4 (Homo sapiens) (P57078 whole entry): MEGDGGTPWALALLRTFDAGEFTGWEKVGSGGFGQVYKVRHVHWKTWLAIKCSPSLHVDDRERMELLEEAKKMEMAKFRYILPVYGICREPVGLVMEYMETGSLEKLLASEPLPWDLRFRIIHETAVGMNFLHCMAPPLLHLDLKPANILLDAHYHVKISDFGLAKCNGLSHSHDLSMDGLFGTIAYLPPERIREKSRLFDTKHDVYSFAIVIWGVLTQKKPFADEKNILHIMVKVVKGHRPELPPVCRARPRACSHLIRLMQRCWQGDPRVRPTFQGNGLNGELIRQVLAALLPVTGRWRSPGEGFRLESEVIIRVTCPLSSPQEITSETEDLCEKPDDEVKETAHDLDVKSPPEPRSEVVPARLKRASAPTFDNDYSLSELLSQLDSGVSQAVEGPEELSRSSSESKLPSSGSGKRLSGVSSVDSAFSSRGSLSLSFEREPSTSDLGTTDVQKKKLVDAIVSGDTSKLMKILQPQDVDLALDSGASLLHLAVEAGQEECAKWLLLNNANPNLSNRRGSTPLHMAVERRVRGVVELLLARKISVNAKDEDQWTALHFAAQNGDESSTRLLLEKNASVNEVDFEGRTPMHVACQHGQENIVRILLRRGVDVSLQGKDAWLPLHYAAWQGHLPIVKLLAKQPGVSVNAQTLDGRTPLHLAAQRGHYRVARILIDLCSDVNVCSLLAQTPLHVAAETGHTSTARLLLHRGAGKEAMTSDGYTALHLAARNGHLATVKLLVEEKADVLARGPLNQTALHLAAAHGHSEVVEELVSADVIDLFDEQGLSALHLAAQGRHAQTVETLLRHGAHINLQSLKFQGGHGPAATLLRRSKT
Chain of Serine/threonine-protein kinase 36 (Homo sapiens) (Q9NRP7 whole entry): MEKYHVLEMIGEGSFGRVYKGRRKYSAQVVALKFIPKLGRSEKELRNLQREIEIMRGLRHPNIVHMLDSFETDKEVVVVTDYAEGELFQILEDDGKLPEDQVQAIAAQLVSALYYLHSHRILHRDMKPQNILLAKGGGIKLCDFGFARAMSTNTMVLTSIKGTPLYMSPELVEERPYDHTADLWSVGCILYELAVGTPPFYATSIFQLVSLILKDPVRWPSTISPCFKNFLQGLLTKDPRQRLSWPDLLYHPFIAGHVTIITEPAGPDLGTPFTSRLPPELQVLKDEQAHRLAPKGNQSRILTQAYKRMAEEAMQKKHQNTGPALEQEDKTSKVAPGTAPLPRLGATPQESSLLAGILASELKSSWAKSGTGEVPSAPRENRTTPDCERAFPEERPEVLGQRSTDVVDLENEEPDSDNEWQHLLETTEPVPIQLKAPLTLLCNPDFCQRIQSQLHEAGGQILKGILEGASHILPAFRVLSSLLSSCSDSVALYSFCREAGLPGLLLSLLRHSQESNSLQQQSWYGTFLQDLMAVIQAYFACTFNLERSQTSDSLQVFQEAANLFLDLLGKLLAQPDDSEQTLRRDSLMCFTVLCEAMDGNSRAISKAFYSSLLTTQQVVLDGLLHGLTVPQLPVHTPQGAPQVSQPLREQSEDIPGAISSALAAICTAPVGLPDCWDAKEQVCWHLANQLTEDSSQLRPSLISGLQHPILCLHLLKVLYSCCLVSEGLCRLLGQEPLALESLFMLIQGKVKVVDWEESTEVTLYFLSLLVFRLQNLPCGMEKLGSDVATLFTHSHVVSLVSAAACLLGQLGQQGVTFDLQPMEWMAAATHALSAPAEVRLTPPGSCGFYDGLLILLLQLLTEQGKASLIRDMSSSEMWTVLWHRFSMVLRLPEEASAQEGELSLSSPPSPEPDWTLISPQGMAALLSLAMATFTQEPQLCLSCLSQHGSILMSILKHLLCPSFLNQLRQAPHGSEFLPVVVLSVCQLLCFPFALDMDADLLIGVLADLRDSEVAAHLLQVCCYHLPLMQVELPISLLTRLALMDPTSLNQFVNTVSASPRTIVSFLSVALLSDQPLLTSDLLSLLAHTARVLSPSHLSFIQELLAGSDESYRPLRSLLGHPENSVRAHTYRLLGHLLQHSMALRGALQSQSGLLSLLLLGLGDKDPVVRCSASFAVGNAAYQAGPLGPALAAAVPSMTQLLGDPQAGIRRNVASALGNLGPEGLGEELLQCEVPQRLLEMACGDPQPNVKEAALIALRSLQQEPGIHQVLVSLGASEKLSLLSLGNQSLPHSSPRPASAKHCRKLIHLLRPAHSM
Chain of Tyrosine-protein kinase ABL1 (Homo sapiens) (P00519 whole entry): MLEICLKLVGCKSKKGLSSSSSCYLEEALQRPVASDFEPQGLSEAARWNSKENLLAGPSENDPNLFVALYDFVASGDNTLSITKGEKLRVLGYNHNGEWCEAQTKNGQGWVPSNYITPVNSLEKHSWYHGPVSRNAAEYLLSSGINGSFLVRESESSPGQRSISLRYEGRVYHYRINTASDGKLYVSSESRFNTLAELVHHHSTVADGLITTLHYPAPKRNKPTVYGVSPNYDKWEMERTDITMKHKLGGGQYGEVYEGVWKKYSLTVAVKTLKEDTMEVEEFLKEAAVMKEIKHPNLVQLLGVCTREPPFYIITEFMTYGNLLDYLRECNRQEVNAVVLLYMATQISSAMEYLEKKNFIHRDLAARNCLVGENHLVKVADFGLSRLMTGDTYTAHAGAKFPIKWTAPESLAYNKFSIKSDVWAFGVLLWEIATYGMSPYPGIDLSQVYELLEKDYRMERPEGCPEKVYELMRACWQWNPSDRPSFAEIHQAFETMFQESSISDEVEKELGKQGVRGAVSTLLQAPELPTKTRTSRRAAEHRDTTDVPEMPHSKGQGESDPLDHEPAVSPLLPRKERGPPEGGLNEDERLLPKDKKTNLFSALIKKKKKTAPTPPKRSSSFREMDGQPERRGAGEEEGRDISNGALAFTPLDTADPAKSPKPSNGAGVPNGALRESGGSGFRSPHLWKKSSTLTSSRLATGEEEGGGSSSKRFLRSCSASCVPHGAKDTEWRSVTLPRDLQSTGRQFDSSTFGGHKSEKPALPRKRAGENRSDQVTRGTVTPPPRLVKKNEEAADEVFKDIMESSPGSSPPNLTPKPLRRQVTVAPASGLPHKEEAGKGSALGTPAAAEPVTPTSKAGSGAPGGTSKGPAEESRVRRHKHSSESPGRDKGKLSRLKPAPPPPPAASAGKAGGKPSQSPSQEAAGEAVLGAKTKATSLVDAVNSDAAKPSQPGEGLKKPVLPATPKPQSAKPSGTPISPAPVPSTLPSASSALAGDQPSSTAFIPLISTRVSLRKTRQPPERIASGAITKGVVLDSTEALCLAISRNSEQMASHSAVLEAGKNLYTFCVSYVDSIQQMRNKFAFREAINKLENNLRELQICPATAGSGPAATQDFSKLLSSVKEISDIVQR
Chain of Mast/stem cell growth factor receptor Kit (Homo sapiens), P10721 [V559D,T670I] (P10721 whole entry V559D/T670I): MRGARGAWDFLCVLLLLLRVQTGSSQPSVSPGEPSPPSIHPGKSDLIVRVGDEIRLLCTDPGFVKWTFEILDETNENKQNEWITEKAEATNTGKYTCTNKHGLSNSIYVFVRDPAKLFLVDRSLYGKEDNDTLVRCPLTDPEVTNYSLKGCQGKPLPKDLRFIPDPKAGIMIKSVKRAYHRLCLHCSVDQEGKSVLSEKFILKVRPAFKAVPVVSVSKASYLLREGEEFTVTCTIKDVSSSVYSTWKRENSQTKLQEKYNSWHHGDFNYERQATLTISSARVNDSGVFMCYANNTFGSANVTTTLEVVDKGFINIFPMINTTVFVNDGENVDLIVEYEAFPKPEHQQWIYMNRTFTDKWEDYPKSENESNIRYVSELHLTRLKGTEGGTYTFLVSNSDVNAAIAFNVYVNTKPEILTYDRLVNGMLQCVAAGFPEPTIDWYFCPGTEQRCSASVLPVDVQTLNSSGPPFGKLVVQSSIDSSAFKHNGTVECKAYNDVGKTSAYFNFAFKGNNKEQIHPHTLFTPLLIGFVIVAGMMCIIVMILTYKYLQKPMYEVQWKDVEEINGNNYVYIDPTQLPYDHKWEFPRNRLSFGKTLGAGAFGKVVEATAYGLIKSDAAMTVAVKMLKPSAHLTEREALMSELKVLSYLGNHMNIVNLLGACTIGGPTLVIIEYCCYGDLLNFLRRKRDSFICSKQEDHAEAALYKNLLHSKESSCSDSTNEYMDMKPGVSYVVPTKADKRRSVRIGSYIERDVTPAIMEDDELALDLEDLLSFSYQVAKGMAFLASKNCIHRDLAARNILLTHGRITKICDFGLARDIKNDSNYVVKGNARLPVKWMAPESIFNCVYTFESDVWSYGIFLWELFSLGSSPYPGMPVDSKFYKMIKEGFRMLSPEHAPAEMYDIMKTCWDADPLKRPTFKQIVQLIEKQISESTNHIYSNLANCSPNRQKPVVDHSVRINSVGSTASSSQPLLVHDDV
Chain of Mitogen-activated protein kinase 7 (Homo sapiens) (Q13164 2-816 limits assumed): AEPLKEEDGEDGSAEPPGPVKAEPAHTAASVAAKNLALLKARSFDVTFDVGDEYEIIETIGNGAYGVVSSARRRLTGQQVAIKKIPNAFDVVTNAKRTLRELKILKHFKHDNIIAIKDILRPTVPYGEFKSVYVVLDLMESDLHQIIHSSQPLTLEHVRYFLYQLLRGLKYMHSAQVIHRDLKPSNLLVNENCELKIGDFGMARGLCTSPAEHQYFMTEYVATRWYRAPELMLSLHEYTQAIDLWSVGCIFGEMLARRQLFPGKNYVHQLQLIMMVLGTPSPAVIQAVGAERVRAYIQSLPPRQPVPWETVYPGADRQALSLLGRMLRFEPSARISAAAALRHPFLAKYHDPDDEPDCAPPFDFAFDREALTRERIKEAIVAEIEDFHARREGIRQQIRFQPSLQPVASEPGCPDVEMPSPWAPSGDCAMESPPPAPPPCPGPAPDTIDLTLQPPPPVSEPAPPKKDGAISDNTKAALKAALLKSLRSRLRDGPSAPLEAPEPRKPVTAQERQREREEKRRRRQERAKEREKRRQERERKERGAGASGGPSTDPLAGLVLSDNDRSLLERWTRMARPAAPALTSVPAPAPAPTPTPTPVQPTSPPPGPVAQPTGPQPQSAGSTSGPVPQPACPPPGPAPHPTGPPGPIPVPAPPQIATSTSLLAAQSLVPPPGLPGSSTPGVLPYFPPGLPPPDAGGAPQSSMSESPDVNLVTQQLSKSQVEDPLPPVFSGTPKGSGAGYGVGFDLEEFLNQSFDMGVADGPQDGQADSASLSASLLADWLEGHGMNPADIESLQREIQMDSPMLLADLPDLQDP

As for `Cc1nc(C2CCN(C(=O)c3ccc(OC(F)(F)F)cc3N)CC2)c2ncc(N3CCN(C)CC3)cc2n1` [BAY-693], the residual activity in assay [1] is 86%; in assay [3] it was 100%; in assay [4], 84%; in assay [5], 100%; in assay [6], 92%; in assay [8], 91%. Moreover, the residual activity in assay [9] was 98%; in assay [10], 99%; in assay [11], 61%; in [12] it was 100%; in assay [13], 22%; in [15], 100%. For the same compound, the residual activity is 92% in assay [16], 100% in [17], 93% in assay [18] and 100% in [19]. In addition, the inhibition in [2] was -0.78%; in assay [7], -1%; in assay [14], 20.2%.
Regarding `CN1CCN(c2cnc3c(C4CCN(C(=O)c5ccc(OC(F)(F)F)cc5N)CC4)ncnc3c2)CC1` [BAY-885], the residual activity was 79% in assay [1]; 100% in assay [3]; 100% in assay [4]; 75% in assay [5]; 94% in assay [6]; 77% in assay [8]. Moreover, the residual activity was 91% in assay [9]; 100% in [10]; 54% in assay [11]; 100% in assay [12]; 0.1% in [13]; 100% in [15]. The residual activity in assay [16] was 91%; in assay [17], 100%; in assay [18] it was 100%; in [19] it was 99%. In addition, the inhibition in [2] is -9.57%; in assay [7] it was -0.56%; in assay [14] it was 16.4%.
